Experimental data taken from US9790211B2, “5-amino-quinoline-8-carboxamide derivatives as 5-HT4 receptor agonists” (SUVEN LIFE SCIENCES LIMITED, priority 2013, dated 2017).

Key:
Aβ1-40 = assay: Effect on CSF Aβ1-40 level (ELISA); format: in vivo, Male Sprague Dawley Rat; settings: p.o., at two hour
Description: The control group of male rats received a vehicle (reagent grade water) per orally by gavage at a dose volume of 10 mL/kg. The treated groups (6 rat per group) received a single dose of test compound (different doses) or DAPT (50.0 mg/kg). Two hour post dose of vehicle or test compounds, rats were anesthetized with isoflurane and CSF was collected from Cisterna magna using 0.5 mL syringes by utilizing stereotaxic frame. The CSF samples were frozen in liquid nitrogen and stored at −80° C. until ELISA was performed.
• 1. CSF samples were thawed to RT and diluted with Tris Buffer Saline containing protease inhibitors at 1:10 ratio 115:150 μL (15 μL CSI+135 μL TBS. • 2. To this diluted CSF samples 0.15 mL of EIA buffer (1:1 ratio) was added. These diluted samples were subjected for Aβ1-40 level measurement by ELISA. Measurement of Aβ1-40 by ELISA Kit:
To investigate the role of an acute treatment of test compound on Aβ1-40 levels, expression of this protein in CSF was measured in treated and untreated rat by ELISA assay. The entire procedure was followed as per ELISA kit manual (Mouse/Rat Amyloid-Aβ1-40 ELISA, Cat No: 27721, IBL International, Hamburg, Germany).
Statistical analysis was performed using the Graph Pad Prism (Version 4). Data are Mean±SD of Aβ1-40 levels expressed as percentage of control values (rat which received regent grade water). Values were compared between the different groups by using unpaired t test. The significance level was set at *p<0.05; **p<0.01; ***p<0.001.

Aβ1-42 = assay: Effect on CSF Aβ1-42 level (ELISA); format: in vivo, Male Sprague Dawley Rat; settings: p.o., two hour post treatment
Description: The control group of male rats received a vehicle (reagent grade water) per orally by gavage at a dose volume of 10 mL/kg. The treated groups (6 rat per group) received a single dose of test compound (different doses) or DAPT (50.0 mg/kg). Two hour post dose of vehicle or test compounds, rats were anesthetized with isoflurane and CSF was collected by puncturing Cisterna magna using 0.5 mL syringes by utilizing stereotaxic frame. CSF samples were frozen in liquid nitrogen and stored at −80° C. until ELISA was performed.
• 1. CSF samples were thawed to RT and diluted with Tris Buffer Saline containing protease inhibitors at 1:10 ratio [15:150 μL (15 μL CSF+ 135 μL TBS], • 2. To this diluted CSF samples 0.15 mL of EIA buffer (1:1 ratio) was added. These diluted samples were subjected for Aβ1-42 level measurement by ELISA. Measurement of Aβ1-42 by ELISA Kit:
To investigate the role of an acute treatment of test compound on Aβ1-42 levels, expression of this protein was measured in CSF of treated and untreated rat by ELISA assay. The entire procedure was followed as described in ELISA kit manual (Mouse/Rat […], Cat No: 27720, IBL International, Hamburg, Germany).
Statistical analyses were performed using the Graph Pad Prism (Version 4). Data are Mean±SD of Aβ1-42 levels expressed as percentage of control values (rat which received regent grade water). Values were compared between the different groups by unpaired t test. The significance level was set at *p<0.05; **p<0.01; ***p<0.001.

[1] = system: acetylcholine levels in the frontal cortex; assay: Modulation of acetylcholine from the frontal cortex (microdialysis); format: in vivo, male Wistar rats; settings: p.o.
Excerpt: Male Wistar rats (240-300 gram body weights) were stereotaxically implanted with a microdialysis guide cannula in the frontal cortex (AP: +3.2 mm, ML: −3.2 mm, DV: −1.5 mm). Co-ordinates were taken according to Paxinos and Watson (2007) with reference points taken from bregma and vertical from the skull. The rats were allowed to recover individually for five days in a round bottom Plexiglas bowl with free access to feed and water.
One day prior to the microdialysis experiment, rats were connected to a dual quartz lined two-channel liquid swivel (Instech. UK) on a counter balance lever arm, which allowed unrestricted movements of the animal. […]
On the day of study, probe was perfused at a constant flow rate of 1.5 (μL/min with artificial cerebrospinal fluid (aCSF; NaCl 147 mM. KCl 3.0 mM, MgCl2 1.0 mM, CaCl2. 2H2O 1.3 mM, NaH2PO4.2H2O 0.2 mM and Na2HPO4. 7H2O 1.0 mM, pH 7.2). A stabilization period of 2 h was maintained and five basal samples were collected at 20 minutes intervals. The compound of Example 18 or vehicle was administered and dialysate samples were collected at 20 minutes interval for an additional period of 4 hours. Dialysates were stored below −70° C. until quantitation of acetylcholine.
Acetylcholine in dialysate was quantified in the calibration range of 0.103 nmol-103.497 nmol using LC-MS/MS method. […]

[2] = system: Scopolamine Induced amnesia; assay: Radial arm maze; format: in vivo; settings: p.o., rats
Excerpt: The cognition enhancing properties of compounds of formula (I) of this invention were estimated by using this model.
Radial arm maze consists of a central hub of 45 cm diameter. Each arm was of dimension 42.5×15×24 cm. The maze was elevated to a height of 1 m above the ground. The animals were placed on a restricted diet until they reached approximately 85% of their free feeding weight. During this diet restriction period animals were habituated to the novel feed (pellets). Once the rats reached approximately 85% of their free feeding weight rats were habituated to the maze on the 1st and 2nd day. […] Animals were randomized on day 2. On the subsequent days the treatment was given as per the allotment: Each animal was introduced into the maze individually for a period of 10 minutes. The arms were baited only once and the animal had to learn the rule that repeated arm entries would not be rewarded. The trial ended once the rat had visited 16 arms or 10 minutes were over or all the pellets were eaten. The arm entries were recorded using the software. Once the trial was over the rat was removed and the maze was cleaned using soap water.

Compound	decrease in the rat CSF Aβ1-40 levels (Aβ1-40; 0.03 mg/kg)	decrease in the rat CSF Aβ1-40 levels (Aβ1-40; 0.1 mg/kg)	decrease in the rat CSF Aβ1-40 levels (Aβ1-40; 0.3 mg/kg)	decrease in the rat CSF Aβ1-40 levels (Aβ1-40; 1.0 mg/kg)	decrease in the rat CSF Aβ1-40 levels (Aβ1-40; 3.0 mg/kg)	decrease in the rat CSF Aβ1-42 levels (Aβ1-42; 0.03 mg/kg)	decrease in the rat CSF Aβ1-42 levels (Aβ1-42; 0.1 mg/kg)	decrease in the rat CSF Aβ1-42 levels (Aβ1-42; 0.3 mg/kg)	decrease in the rat CSF Aβ1-42 levels (Aβ1-42; 1.0 mg/kg)	decrease in the rat CSF Aβ1-42 levels (Aβ1-42; 3.0 mg/kg)	Area under the curve of acetylcholine change, frontal cortex (in words) ([1]; 10.0 mg/kg, vs vehicle, p<0.05)	acetylcholine levels from the frontal cortex (in words) ([1]; 3.0 and 10.0 mg/kg, male Wistar rats)	Reversal of Scopolamine Induced amnesia - Effective dose range [2]
Nc1c(Cl)cc(C(=O)NCC2CCN(CC3CCOCC3)CC2)c2ncccc12.O=C(O)/C=C/C(=O)O [Example 1, 5-Amino-6-chloro-N-{[1-(tetrahydro-2H-pyran-4-ylmethyl)-4-piperidinyl]methyl}quinoline-8-carboxamide hemifumarate]	27%	24%	40%	22%	29%	25%	21%	35%	22%	26%			
Nc1c(Cl)cc(C(=O)NCC2CCN(CC3CCOCC3)CC2)c2ncccc12.O=C(O)C(O)C(O)C(=O)O [Example 13, 5-Amino-6-chloro-N-{[1-(tetrahydro-2H-pyran-4-ylmethyl)-4-piperidinyl]methyl} quinoline-8-carboxamide L(+)-tartarate]											significant	dose dependent increase	0.1-1 mg/kg, p.o.
